The text below walks through data of ChEMBL document CHEMBL1201862, “PubChem BioAssay data set” (2004).

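Each compound was tested at five concentrations against cells in 96-well plates for 48 hours. At the GI50, growth is halved.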 Calls of active or inactive are those of the source. Cut-off read from the data, not from the text of the source: active = GI50 up to about 1.1 µM and inactive = higher. Where a SMILES comes first, the peptide text is derived from it. The star is where a group is joined. Cbz = O=C(OCc1ccccc1)*

Among the test systems are SK-MEL-5; HCC 2998; U-251; Malme-3M; MCF7; MDA-MB-435; NCI-H226; CCRF-CEM; SF-268; SK-OV-3; COLO 205; SN12C; SNB-19; OVCAR-4; 786-0; SF-295; UACC-62; MOLT-4; SNB-75.
Holding throughout (assay): inhibition of tumour cell growth, NCI panel, 48 h

On to `CCOC(=O)N1N(c2ccccc2)C(=O)C1(c1ccccc1)c1ccccc1`, for which the GI50 in the test with SK-MEL-5 was 33.8 µM (inactive); with HCC 2998, > 100 µM (inactive); with U-251, 89.1 µM (inactive); in the test on Malme-3M, 97.7 µM (inactive); in the test on MCF7, 25.9 µM (inactive); with MDA-MB-435 it was > 100 µM (inactive). The GI50 is 99.1 µM (inactive) in the test on NCI-H226; 66.5 µM (inactive) in the test on CCRF-CEM; > 100 µM (inactive) with SF-268; > 100 µM (inactive) with SK-OV-3; 80.9 µM (inactive) in the test with COLO 205; > 100 µM (inactive) with SN12C. The GI50 is > 100 µM (inactive) in the test on SNB-19; > 100 µM (inactive) in the test on OVCAR-4; > 100 µM (inactive) with 786-0; 99.1 µM (inactive) in the test on SF-295; > 100 µM (inactive) with UACC-62; 20.1 µM (inactive) in the test with MOLT-4.

With `CCCCc1ccc(-n2c(C)c(COC(=O)NC)c(COC(=O)NC)c2C)cc1`, the GI50 was 11.4 µM (inactive) in the test on SK-MEL-5; 12.7 µM (inactive) in the test with HCC 2998; 4.92 µM (inactive) with U-251; 6.07 µM (inactive) in the test on Malme-3M; 4.76 µM (inactive) in the test on MCF7; 12.5 µM (inactive) in the test with MDA-MB-435. Besides, the GI50 is 1.05 µM (active) with NCI-H226; 2.92 µM (inactive) in the test on CCRF-CEM; 4.81 µM (inactive) in the test on SF-268; 3.76 µM (inactive) in the test with SK-OV-3; 7.21 µM (inactive) in the test with COLO 205; 3.54 µM (inactive) in the test on SN12C. The GI50 in the test with SNB-19 is 13.9 µM (inactive); in the test on SNB-75, 7.73 µM (inactive); in the test on 786-0, 4.08 µM (inactive); in the test with SF-295, 8.61 µM (inactive); in the test with UACC-62, 2.29 µM (inactive).

Turning to `Cc1ccc(C(=O)/C=C2\Nc3cccnc3NC2=O)cc1`, the GI50 in the test with SK-MEL-5 is > 100 µM (inactive); in the test on HCC 2998, > 100 µM (inactive); in the test on U-251 it was 39.5 µM (inactive); in the test with Malme-3M it was 95.9 µM (inactive); in the test with MCF7 it was > 100 µM (inactive); with MDA-MB-435 it was > 100 µM (inactive). The GI50 was > 100 µM (inactive) in the test on NCI-H226; > 100 µM (inactive) with CCRF-CEM; 55.8 µM (inactive) with SF-268; > 100 µM (inactive) with SK-OV-3; > 100 µM (inactive) in the test with COLO 205; > 100 µM (inactive) with SN12C. The GI50 with SNB-19 was > 100 µM (inactive); in the test on OVCAR-4, > 100 µM (inactive); with 786-0, 40.2 µM (inactive); in the test on SF-295 it was > 100 µM (inactive); in the test on UACC-62, > 100 µM (inactive); with MOLT-4, > 100 µM (inactive).

`CN1C(=O)N(c2ccccc2)C2(CCN(CC3COc4ccccc4O3)CC2)C1=O` (configuration not stated): the GI50 in the test on SK-MEL-5 is 71.6 µM (inactive); in the test on HCC 2998 it was > 100 µM (inactive); with U-251, > 100 µM (inactive); in the test on Malme-3M, > 100 µM (inactive); in the test with MCF7, > 100 µM (inactive); in the test on MDA-MB-435, > 100 µM (inactive). In addition, the GI50 in the test with NCI-H226 was 59.2 µM (inactive); in the test on CCRF-CEM, > 100 µM (inactive); with SF-268 it was > 100 µM (inactive); in the test on COLO 205, 87.5 µM (inactive); in the test on SN12C, > 100 µM (inactive); in the test on SNB-19, 5.71 µM (inactive). Further, the GI50 with OVCAR-4 was > 100 µM (inactive); in the test on 786-0 it was 85.3 µM (inactive); with SF-295, > 100 µM (inactive); in the test with UACC-62 it was > 100 µM (inactive); in the test with MOLT-4, 65.9 µM (inactive).

Consider `Cc1nc(N)c(N2CCN([N+](=O)[O-])CC2)c(O)n1`, for which the GI50 in the test on HCC 2998, in the test with U-251, in the test on Malme-3M, with MCF7, in the test on MDA-MB-435 and with NCI-H226 was > 100 µM (inactive) throughout. Besides, the GI50 in the test with CCRF-CEM, in the test with SF-268, in the test on COLO 205, with SN12C, with SNB-19 and in the test on OVCAR-4 was > 100 µM (inactive) in each case. For the same compound, the GI50 in the test with SNB-75, in the test on 786-0, in the test with SF-295 and in the test with MOLT-4 was > 100 µM (inactive) in each case.

As to `CCOP(=O)(OCC)/C(=C\N1C(=O)CC(=O)NC1=S)C(=O)OC`, the GI50 with SK-MEL-5, in the test with HCC 2998, with U-251, in the test on MCF7, in the test with MDA-MB-435 and in the test with NCI-H226 was > 100 µM (inactive) in each case. Besides, the GI50 with SF-268, with SK-OV-3, in the test with COLO 205, with SN12C, in the test on SNB-19 and in the test with OVCAR-4 was > 100 µM (inactive) each time. The GI50 in the test on SNB-75, in the test with 786-0, in the test on SF-295, in the test with UACC-62 and in the test with MOLT-4 was > 100 µM (inactive) in each case.

For the compound `CCOC(=O)CNC(=O)C(C)NC(=O)C(NC(=O)OCc1ccccc1)C(C)C` (stereo not drawn) (Cbz-Val-Ala-Gly-OEt; configuration not given here), the GI50 in the test on SK-MEL-5 is > 100 µM (inactive); in the test with HCC 2998, 90.2 µM (inactive); in the test on U-251, > 100 µM (inactive); with Malme-3M, > 100 µM (inactive); with MCF7 it was > 100 µM (inactive); in the test on MDA-MB-435, > 100 µM (inactive). Besides, the GI50 in the test with NCI-H226 was > 10 µM (inactive); in the test on SF-268, > 100 µM (inactive); in the test with SK-OV-3, > 100 µM (inactive); in the test with COLO 205, > 100 µM (inactive); with SN12C, > 100 µM (inactive); in the test on SNB-19, > 100 µM (inactive). The GI50 with SNB-75 was > 100 µM (inactive); in the test on 786-0, > 100 µM (inactive); in the test with SF-295 it was > 100 µM (inactive); in the test with UACC-62, > 100 µM (inactive); with MOLT-4 it was 32 µM (inactive).

For `NC(=O)N/N=C1\C[C@H]2CCCC[C@H]2C1`, the GI50 in the test with SK-MEL-5, in the test on HCC 2998, with U-251, with MCF7, with MDA-MB-435 and with NCI-H226 was > 100 µM (inactive) each time. The GI50 with SF-268 is > 100 µM (inactive); in the test with SK-OV-3 it was > 100 µM (inactive); with COLO 205 it was > 100 µM (inactive); in the test on SN12C, > 100 µM (inactive); in the test with SNB-19, 84.7 µM (inactive); in the test on OVCAR-4, > 100 µM (inactive). Also, the GI50 with SNB-75, in the test on 786-0, with SF-295, with UACC-62 and in the test on MOLT-4 was > 100 µM (inactive) each time.

As for `Cc1cccc2c1Oc1cc(Cl)ccc1C2NC(=O)CCN1CCCCC1` (configuration not stated), the GI50 is 14.9 µM (inactive) with SK-MEL-5; 15 µM (inactive) in the test with HCC 2998; 15.6 µM (inactive) in the test with U-251; 17.5 µM (inactive) with MCF7; 16 µM (inactive) with MDA-MB-435; 16 µM (inactive) in the test on CCRF-CEM. In addition, the GI50 with SF-268 is 26.2 µM (inactive); with COLO 205 it was 15 µM (inactive); in the test on SN12C it was 17.3 µM (inactive); in the test with SNB-19, 17.5 µM (inactive); with OVCAR-4, 15.3 µM (inactive); in the test with SNB-75 it was 14.5 µM (inactive). Also, the GI50 was 14.8 µM (inactive) in the test on 786-0, 18.8 µM (inactive) in the test with SF-295, 14.7 µM (inactive) in the test on UACC-62 and 16.1 µM (inactive) in the test with MOLT-4.

With `COc1ccc(N2C(=O)C3c4[nH]c5c(C)cccc5c4C4CCC(c5ccccc5)CC4C3C2=O)cc1` (configuration not stated), the GI50 in the test on HCC 2998 is > 10 µM (inactive); in the test on U-251, 8.43 µM (inactive); in the test with MCF7, 6.28 µM (inactive); in the test with MDA-MB-435, 12.3 µM (inactive); with NCI-H226, 10.4 µM (inactive); with CCRF-CEM it was 1.28 µM (inactive). The GI50 in the test with SF-268 is 6.65 µM (inactive); in the test on SK-OV-3 it was 17.7 µM (inactive); with COLO 205 it was 8.63 µM (inactive); in the test with SN12C, 16.2 µM (inactive); in the test with SNB-19, 21.9 µM (inactive); in the test on OVCAR-4, 11.1 µM (inactive). The GI50 in the test with SNB-75 is 10.7 µM (inactive); in the test with 786-0, 3.9 µM (inactive); in the test on SF-295 it was 17.5 µM (inactive); in the test with UACC-62, > 10 µM (inactive); in the test with MOLT-4 it was 3.4 µM (inactive).

For `COC1CC(OC2CCC3(C)C(CCC45CCC(C6=CC(=O)OC6)C(C)(CCC43)C5=O)C2)OC(C)C1O` (configuration not stated), the GI50 was 18.1 µM (inactive) in the test with SK-MEL-5; 13.1 µM (inactive) in the test on HCC 2998; 46.2 µM (inactive) in the test with U-251; 50.7 µM (inactive) in the test on MCF7; > 100 µM (inactive) with MDA-MB-435; 53.1 µM (inactive) in the test on NCI-H226. The GI50 in the test with CCRF-CEM is 18.4 µM (inactive); in the test with SF-268, 17.5 µM (inactive); in the test with SK-OV-3, 46.1 µM (inactive); in the test with COLO 205, 40.5 µM (inactive); in the test with SN12C, 23.5 µM (inactive); with SNB-19, 20.3 µM (inactive). Moreover, the GI50 is 30.3 µM (inactive) with SNB-75; 23.6 µM (inactive) in the test on 786-0; 33.9 µM (inactive) in the test with SF-295; > 100 µM (inactive) in the test on UACC-62; 32.1 µM (inactive) in the test with MOLT-4.
